Our source for the IC50 values is BindingDB's records for doi:10.1002/cbic.201500446 (Hans Knöll Institute, 2015).

This experiment addresses T1, Polyunsaturated fatty acid 5-lipoxygenase (Homo sapiens, UniProt P09917).
T1 sequence (P09917 whole entry): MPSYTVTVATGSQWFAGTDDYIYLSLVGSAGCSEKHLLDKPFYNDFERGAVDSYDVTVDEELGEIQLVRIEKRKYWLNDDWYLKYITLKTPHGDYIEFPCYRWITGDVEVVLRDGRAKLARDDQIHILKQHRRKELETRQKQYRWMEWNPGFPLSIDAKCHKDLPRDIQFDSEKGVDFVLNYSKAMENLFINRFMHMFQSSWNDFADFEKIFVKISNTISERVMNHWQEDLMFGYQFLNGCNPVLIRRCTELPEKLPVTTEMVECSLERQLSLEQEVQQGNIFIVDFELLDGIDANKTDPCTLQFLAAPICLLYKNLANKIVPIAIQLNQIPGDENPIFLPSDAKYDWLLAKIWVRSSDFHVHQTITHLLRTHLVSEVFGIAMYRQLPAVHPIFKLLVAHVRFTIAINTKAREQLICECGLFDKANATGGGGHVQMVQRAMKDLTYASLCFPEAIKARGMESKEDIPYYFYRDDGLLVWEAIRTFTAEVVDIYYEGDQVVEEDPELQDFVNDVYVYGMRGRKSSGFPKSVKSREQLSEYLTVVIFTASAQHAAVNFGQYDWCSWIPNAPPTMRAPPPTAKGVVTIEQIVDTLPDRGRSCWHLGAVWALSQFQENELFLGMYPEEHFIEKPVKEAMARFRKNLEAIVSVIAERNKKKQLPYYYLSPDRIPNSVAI
As to the kind of experiment: 5-LO Activity Assay. How it is done:
Purified 5-LO was diluted in PBS containing EDTA (1 mM) and freshly added ATP (1 mM) and incubated with the myxochelin test substances for 10 min at 4°C, followed by 30 s at 37°C. Addition of CaCl2 (2 mM) and arachidonic acid (20 µM) initiatedthe 5-LO product formation. After 10 min, the reaction was terminated by adding ice-old MeOH (1 mL), and the production of 5-LO metabolites was analyzed by RP-HPLC.

Some results are limits rather than exact numbers.

Broadly, the IC50 is the concentration at which inhibition is half-maximal. Lower therefore signals higher potency. In the case of `O=C(NCCCC[C@@H](CO)NC(=O)c1cccc(O)c1O)c1cccc(O)c1O` [Myxochelin A], the IC50 was found to be 1.72 µM.
Regarding `O=C(NCCCC[C@@H](CO)NC(=O)c1cccc(O)c1O)c1ccccc1` [Myxochelin J1], the concentration for half-maximal inhibition (IC50) worked out at 3.15 µM.
The figure for `O=C(N[C@H](CO)CCCCNC(=O)c1cccc(O)c1O)c1ccccc1` [Myxochelin J2] is 2.39 µM.
`O=C(NCCCC[C@@H](CO)NC(=O)c1cccc(O)c1O)c1ccccc1O` [Myxochelin J3] returned an IC50 of 1.52 µM.
For `O=C(N[C@H](CO)CCCCNC(=O)c1cccc(O)c1O)c1ccccc1O` [Myxochelin J4] the value was 3.54 µM; for `O=C(NCCCC[C@@H](CO)NC(=O)c1ccccc1O)c1ccccc1O` [Myxochelin J5], 9.32 µM; for `O=C(N[C@H](CO)CCCCNC(=O)c1c(O)cccc1F)c1cccc(O)c1O` [Myxochelin J6], 1.44 µM.
For the molecule `O=C(NCCCC[C@@H](CO)NC(=O)c1c(O)cccc1F)c1cccc(O)c1O` [Myxochelin J7], the IC50 was 1.18 µM.
Molecule `O=C(NCCCC[C@@H](CO)NC(=O)c1c(O)cccc1F)c1c(O)cccc1F` [Myxochelin J8] showed a half-inhibitory concentration (IC50) of 3.6 µM.
Regarding `O=C(NCCCC[C@@H](CO)NC(=O)c1cccc(O)c1O)c1ccccc1F` [Myxochelin J9], the IC50 was determined as 8.4 µM.
Molecule `O=C(N[C@H](CO)CCCCNC(=O)c1cccc(O)c1O)c1ccccc1F` [Myxochelin J10] returned an IC50 of 8.09 µM.
For `O=C(NCCCC[C@@H](CO)NC(=O)c1ccccc1F)c1ccccc1F` [Myxochelin J11] the value was more than 10 µM; for `O=C(NCCCC[C@@H](CO)NC(=O)c1cccc(F)c1)c1cccc(F)c1` [Myxochelin J12], more than 10 µM; for `O=C(NCCCC[C@@H](CO)NC(=O)c1cccc(O)c1O)c1ccccc1Cl` [Myxochelin J13], 4.6 µM.
Take `O=C(N[C@H](CO)CCCCNC(=O)c1cccc(O)c1O)c1ccccc1Cl` [Myxochelin J14]: the concentration for half-maximal inhibition (IC50) turned out to be 3.64 µM.
